Source: PMC11094307, “Marine-derived EGFR inhibitors: novel compounds targeting breast cancer growth and drug resistance” (Frontiers in Pharmacology, 2024)

How the values were obtained:
[1] = biological target: T1, EGFR (Homo sapiens, UniProt P00533); test: CETSA in MCF-7 cells; type: cell-based; conditions: for CETSA WB Normalized (Figure 3F): control 0 µM 0.614197892
T1 construct: endogenous in cells; host or cells: MCF-7
Method: In the CETSA, MCF-7 cells were treated with varying concentrations of Tandyukisin (5, 10, 20 µM) or a control solution of 0.2% DMSO for 24 h. Following treatment, cells were harvested and washed with PBS to eliminate any residual drug, then an equal number of cells were allocated into 0.2 mL PCR tubes. These cells were resuspended in 100 µL PBS supplemented with a complete protease inhibitor cocktail and subjected to a heating step at […] for 3 min. Post-heating, the cells underwent lysis through three cycles of freeze-thaw using liquid nitrogen, followed by centrifugation at 12,000g for 20 min at 4°C to separate the lysate. The clarified supernatant from each tube was then carefully transferred to fresh tubes for Western blotting.
To confirm Tandyukisin directly bound EGFR in cells, CETSA was conducted. Currently, CETSA is widely used in drug target discovery assay and is based on the thermal stability changes after drugs bind to their targets ([Martinez Molina et al., 2013]; [Jafari et al., 2014]). After treatment with Tandyukisin at 5, 10, 20 μM for 24 h, the multiple aliquots of the cell suspension were heated at 55°C. The heated cells were subsequently lysed and centrifuged to separate soluble fractions from precipitated denatured EGFR. After thermal denaturation, EGFR in the soluble fraction was examined by Western blotting.

[2] = tested on: MCF-7 cells; test: Annexin V-FITC/PI apoptosis analysis; type: cell-based, human; conditions: 24 h
Method: Apoptosis was evaluated using the Annexin V-FITC/PI Apoptosis Detection Kit (Vazyme). The harvested MCF-7 cells were first resuspended in 1× binding buffer from the kit to achieve a final concentration of 1×10^6 cells/ml. Next, 100 μL of the cell suspension, 5 μL of Annexin V, and 10 μL of PI were mixed and incubated in the dark for 15 min. Subsequently, 400 μL of 1× binding buffer was added to the mixture in preparation for apoptosis analysis.

[3] = biological target: FGFR2 (Homo sapiens, UniProt P21802); test: Kinase profiling; type: biochemical; conditions: one of the other seven tyrosine kinases
Method: (§1) The experiments were conducted in accordance with the manufacturer’s guidelines (Promega). The procedure began with a kinase reaction, where 5 μL of 1× kinase buffer was utilized, and the mixture was incubated at room temperature for 60 min. This step was followed by the addition of 5 μL of ADP-Glo™ reagent to terminate the kinase reaction and to deplete any remaining ATP, with a subsequent incubation period of 40 min at room temperature. Next, 10 μL of kinase detection reagent was added to convert ADP back into ATP, and luciferase along with luciferin was introduced to facilitate ATP detection. This mixture was then incubated at room temperature for an additional 30 min. Detection was carried out using a BioTek Synergy4 instrument, and data analysis, including curve fitting and presentation, was performed using GraphPad Prism version 5.0. […]; [Song et al., 2017]; [Abou-Zied et al., 2019]).

[4] = biological target: HER4 (Homo sapiens, UniProt Q15303); test: Kinase profiling; type: biochemical
Method: as §1

[5] = tested on: MCF-10A cells; test: MTT assay, MCF-10A; type: cell-based, human; conditions: MCF-10A (non-tumorigenic epithelial), 10 μM
Method: The cell lines MCF-7 and A431 were cultured in Dulbecco’s Modified Eagle’s Medium (DMEM, Gibco, USA), while HL-60, H1299, and A549 cells were maintained in RPMI-1640 medium (Gibco, USA). Both mediums were enriched with 10% fetal bovine serum and 1% penicillin/streptomycin. […] All cell cultures were incubated at 37°C in an atmosphere containing 5% CO2.
Cells in the exponential growth phase were seeded into 96-well plates and allowed to adhere overnight. Subsequently, they were treated in triplicate with various concentrations of the compounds (0, 1.56, 3.13, 6.25, 12.5, 25, 50, 100 µM), […]. After 24 h, 20 µL of Methyl-thiazolyldiphenyl-tetrazolium bromide (MTT, 5 mg/mL, Thermo Fisher Scientific) was added to each well and incubated for a minimum of 4 h. Following the incubation, the medium containing the compounds and MTT was removed from each well, and 200 µL of dimethyl sulfoxide (DMSO) was added. The plates were then shaken for 10 min at 37°C to dissolve the formazan crystals. The absorbance was measured using a microplate reader (BioTek Synergy 4) at a wavelength of 490 nm.

[6] = tested on: BAX; test: Western blotting of MCF-7 lysates, BAX; type: cell-based, human; conditions: for BAX WB Normalized: control 0 µM 0.795076455
Method: (§2) MCF-7 cell lysates were prepared by rinsing the cells twice with PBS and then solubilizing them in lysis buffer (NP40 supplemented with protease and phosphatase inhibitor cocktails) on ice. The solubilization process involved rotating the lysis buffer/cell mixture end over end for 10 min at 4°C. After centrifugation for 10 min at 4°C to remove insoluble material, the protein concentration of the solubilized protein was determined using a BCA assay. Subsequently, samples were diluted in SDS sample buffer. Equivalent amounts of protein were separated by SDS-PAGE, transferred to PVDF membranes, and probed with the indicated antibody. Prior to incubation with primary antibodies overnight at 4°C, the membranes were blocked with 5% skim milk-TBST. The antibodies and their sources were as follows: PARP1 (1:500, Santa Cruz Biotechnology), Cleaved Caspase-3 (1:1000, Cell Signaling Technology), BAX (1:500, Santa Cruz Biotechnology), BCL-2 (1:500, Santa Cruz Biotechnology), and GAPDH (1:500, Santa Cruz Biotechnology). Following incubation with horseradish peroxidase-conjugated goat anti-mouse or goat anti-rabbit secondary antibody (Santa Cruz Biotechnology), the detected proteins were visualized using the Pierce Enhanced Chemiluminescence (ECL) reagent and a UV Products imaging system. Band intensities were quantified using the National Institutes of Health ImageJ software.

[7] = tested on: PARP1; test: Western blotting of MCF-7 lysates, PARP1; type: cell-based, human; conditions: for PARP1 WB Normalized: control 0 µM 1.034604877
Method: as §2

T1 sequence (P00533 25-1210): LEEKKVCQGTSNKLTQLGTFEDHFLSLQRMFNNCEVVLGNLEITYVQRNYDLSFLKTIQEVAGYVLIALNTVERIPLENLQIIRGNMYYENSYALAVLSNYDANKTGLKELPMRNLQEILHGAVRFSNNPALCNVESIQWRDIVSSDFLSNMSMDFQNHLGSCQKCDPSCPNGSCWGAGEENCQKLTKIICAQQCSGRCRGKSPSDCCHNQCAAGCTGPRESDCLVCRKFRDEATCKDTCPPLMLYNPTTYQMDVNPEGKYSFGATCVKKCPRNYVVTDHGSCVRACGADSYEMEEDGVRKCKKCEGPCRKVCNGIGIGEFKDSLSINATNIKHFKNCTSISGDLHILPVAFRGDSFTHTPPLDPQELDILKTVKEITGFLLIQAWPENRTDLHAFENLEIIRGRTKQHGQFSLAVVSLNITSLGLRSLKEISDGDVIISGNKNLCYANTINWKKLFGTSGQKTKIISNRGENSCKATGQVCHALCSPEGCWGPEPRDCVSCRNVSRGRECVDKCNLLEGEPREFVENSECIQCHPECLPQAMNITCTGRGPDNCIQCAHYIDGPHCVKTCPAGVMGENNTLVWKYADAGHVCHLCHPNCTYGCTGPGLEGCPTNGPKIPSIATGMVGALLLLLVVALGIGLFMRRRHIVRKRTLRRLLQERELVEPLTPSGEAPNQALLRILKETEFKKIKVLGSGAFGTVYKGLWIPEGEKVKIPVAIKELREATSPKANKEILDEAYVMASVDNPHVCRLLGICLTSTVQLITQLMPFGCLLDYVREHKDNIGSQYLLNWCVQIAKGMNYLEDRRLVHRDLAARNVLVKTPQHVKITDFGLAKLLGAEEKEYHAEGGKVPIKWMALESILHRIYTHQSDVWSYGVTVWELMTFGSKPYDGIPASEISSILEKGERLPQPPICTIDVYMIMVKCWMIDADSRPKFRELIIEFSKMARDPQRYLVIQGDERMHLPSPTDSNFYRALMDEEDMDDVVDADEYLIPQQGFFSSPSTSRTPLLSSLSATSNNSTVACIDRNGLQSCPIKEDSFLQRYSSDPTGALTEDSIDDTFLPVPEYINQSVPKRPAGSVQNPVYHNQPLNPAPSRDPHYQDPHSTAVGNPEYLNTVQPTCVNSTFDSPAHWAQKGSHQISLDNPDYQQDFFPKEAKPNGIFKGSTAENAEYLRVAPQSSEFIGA
Sequence of HER4 (Q15303 26-1308): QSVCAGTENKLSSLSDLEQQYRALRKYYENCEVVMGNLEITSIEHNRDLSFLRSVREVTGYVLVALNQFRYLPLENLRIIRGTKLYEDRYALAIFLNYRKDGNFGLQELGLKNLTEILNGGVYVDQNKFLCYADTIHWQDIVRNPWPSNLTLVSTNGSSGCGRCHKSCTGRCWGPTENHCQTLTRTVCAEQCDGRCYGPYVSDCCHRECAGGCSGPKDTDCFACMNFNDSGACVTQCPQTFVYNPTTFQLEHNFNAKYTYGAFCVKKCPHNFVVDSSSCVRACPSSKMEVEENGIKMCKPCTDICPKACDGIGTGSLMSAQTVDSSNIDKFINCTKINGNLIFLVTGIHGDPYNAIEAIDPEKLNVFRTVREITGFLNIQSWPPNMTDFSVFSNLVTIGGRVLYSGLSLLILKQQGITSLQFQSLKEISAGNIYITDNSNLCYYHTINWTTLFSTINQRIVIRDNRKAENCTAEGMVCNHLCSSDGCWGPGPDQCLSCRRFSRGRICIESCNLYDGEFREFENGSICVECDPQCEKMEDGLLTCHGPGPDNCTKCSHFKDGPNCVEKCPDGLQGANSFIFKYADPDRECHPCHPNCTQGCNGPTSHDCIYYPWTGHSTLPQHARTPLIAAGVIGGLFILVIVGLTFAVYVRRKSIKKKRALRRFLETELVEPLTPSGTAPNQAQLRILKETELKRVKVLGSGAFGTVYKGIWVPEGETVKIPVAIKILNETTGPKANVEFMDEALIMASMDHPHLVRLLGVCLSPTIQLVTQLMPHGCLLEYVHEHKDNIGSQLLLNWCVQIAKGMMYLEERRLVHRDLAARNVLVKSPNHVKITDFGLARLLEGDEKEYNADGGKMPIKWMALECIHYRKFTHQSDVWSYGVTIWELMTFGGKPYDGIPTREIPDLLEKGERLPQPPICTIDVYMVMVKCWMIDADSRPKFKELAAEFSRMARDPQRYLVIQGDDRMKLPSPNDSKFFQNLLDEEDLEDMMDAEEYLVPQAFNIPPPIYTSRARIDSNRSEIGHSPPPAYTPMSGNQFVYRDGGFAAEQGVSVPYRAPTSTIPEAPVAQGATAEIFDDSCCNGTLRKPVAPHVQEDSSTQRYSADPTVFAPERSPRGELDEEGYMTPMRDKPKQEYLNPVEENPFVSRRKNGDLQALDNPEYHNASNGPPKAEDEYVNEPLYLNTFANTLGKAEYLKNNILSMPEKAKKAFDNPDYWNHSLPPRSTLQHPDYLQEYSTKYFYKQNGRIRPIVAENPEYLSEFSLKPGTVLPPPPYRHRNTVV
Sequence of FGFR2 (P21802 22-821): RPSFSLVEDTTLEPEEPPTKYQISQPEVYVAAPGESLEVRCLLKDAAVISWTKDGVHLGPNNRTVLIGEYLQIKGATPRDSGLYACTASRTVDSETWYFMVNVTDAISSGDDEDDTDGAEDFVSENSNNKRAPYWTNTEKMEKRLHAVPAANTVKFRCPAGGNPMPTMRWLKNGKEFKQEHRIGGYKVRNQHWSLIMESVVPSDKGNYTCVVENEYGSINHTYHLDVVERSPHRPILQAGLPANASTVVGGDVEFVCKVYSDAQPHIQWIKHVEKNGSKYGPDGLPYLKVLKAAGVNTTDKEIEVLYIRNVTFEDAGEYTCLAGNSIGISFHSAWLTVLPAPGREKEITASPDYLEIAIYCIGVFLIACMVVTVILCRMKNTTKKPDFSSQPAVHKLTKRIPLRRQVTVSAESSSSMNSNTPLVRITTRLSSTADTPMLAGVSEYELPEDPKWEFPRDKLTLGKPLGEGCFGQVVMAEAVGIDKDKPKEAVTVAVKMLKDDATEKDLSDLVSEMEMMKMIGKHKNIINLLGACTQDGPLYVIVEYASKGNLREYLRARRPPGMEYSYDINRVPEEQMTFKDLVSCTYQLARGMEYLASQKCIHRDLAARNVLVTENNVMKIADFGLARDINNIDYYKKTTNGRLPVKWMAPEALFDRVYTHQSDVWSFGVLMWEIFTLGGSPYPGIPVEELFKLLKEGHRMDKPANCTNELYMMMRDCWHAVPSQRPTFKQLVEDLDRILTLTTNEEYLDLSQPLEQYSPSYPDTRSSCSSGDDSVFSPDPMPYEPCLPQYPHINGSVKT

SMILES: COC(=O)C/C(C)=C/C(=O)O[C@@H]1C[C@@H](C)[C@H]2[C@@H](C=C[C@H](CC(C)C)[C@]2(C)C(=O)/C=C\O)[C@@H]1O [Tandyukisin]
- CETSA WB Gray Value (Figure 3F) ([1]; 5 µM): 29078.924
- CETSA WB Normalized (Figure 3F) ([1]; 5 µM): 0.7019
- CETSA WB Gray Value (Figure 3F) ([1]; 10 µM): 31150.702
- CETSA WB Normalized (Figure 3F) ([1]; 10 µM): 0.8063
- CETSA WB Gray Value (Figure 3F) ([1]; 20 µM): 42106.53
- CETSA WB Normalized (Figure 3F) ([1]; 20 µM): 1.166
- accumulation of EGFR in the soluble fraction (CETSA) compared with DMSO control ([1]; MCF-7, 5, 10, 20 μM, 24 h, heated): markable increase
- apoptosis ratio (lower right quadrant, early apoptosis: PI negative, annexin V-FITC positive) ([2]; 5 μM): 12.10%
- apoptosis ratio (lower right quadrant, early apoptosis: PI negative, annexin V-FITC positive) ([2]; 10 μM): 14.37%
- apoptosis ratio (lower right quadrant, early apoptosis: PI negative, annexin V-FITC positive) ([2]; 20 μM): 19.24%
- IC50 [3]: > 100 µM
- IC50 [4]: 31.1 ± 0.1 nM
- cell lethality percentage [5]: 8.9% ± 1.5%
- BAX WB Gray Value ([6]; 5 µM): 19561.731
- BAX WB Normalized ([6]; 5 µM): 0.4461
- BAX WB Gray Value ([6]; 10 µM): 48768.744
- BAX WB Normalized ([6]; 10 µM): 1.12
- BAX WB Gray Value ([6]; 20 µM): 33049.489
- BAX WB Normalized ([6]; 20 µM): 0.9664
- PARP1 WB Gray Value ([7]; 5 µM): 43160.066
- PARP1 WB Normalized ([7]; 5 µM): 0.9844
- PARP1 WB Gray Value ([7]; 10 µM): 33044.409
- PARP1 WB Normalized ([7]; 10 µM): 0.759
- PARP1 WB Gray Value ([7]; 20 µM): 24731.459
- PARP1 WB Normalized ([7]; 20 µM): 0.7232
- expression level of PARP1 ([7]; MCF-7, upon treatment): decreased
